Data from the NIST ThermoML archive (doi:10.1021/je500513b).
± gives the expanded uncertainty stated by the source.

Assay: mn = molality of the nth substance listed, in mol/kg
Details: 298.15 K, Pendant drop shape, m2 = 0

| surface tension liquid-gas [mN/m] | Structure (SMILES) |
| --- | --- |
| 71.98 ± 16 | O [water] + CCCCCCCCCCCCCC[N+](C)(C)CCCC[N+](C)(C)CCCCCCCCCCCCCC.[Br-].[Br-] |
| 71.98 ± 18 | O [water] + CCCCCCCCCCCCCC[N+](C)(C)CCC[N+](C)(C)CCCCCCCCCCCCCC.[Br-].[Br-] |
| 71.98 ± 2.2 | O [water] + CCCCCCCCCCCC[N+](C)(C)CCCCCC[N+](C)(C)CCCCCCCCCCCC.[Br-].[Br-] |
